US5081112A, “Method for treating hyperlipidemia” (Otsuka Pharmaceutical Factory Inc., priority 1986, dated 1992)
Like-named read-outs stand apart in the source and are kept apart here.

Columns and labels:
[1] = tested on: Triton WR-1339-induced hyperlipidemia in rat; assay: antilipotropic effect in Triton WR-1339-induced hyperlipidemia in rat; assay type: in vivo, Wistar-strain male rats; details: 50 mg/kg oral, vs control
Excerpt: Wistar-strain male rats of 5-9 week age were used as test animals. One test group consisting of six (6) rats.
[a] is a determined value obtained from the control group, and
[b] is a determined value obtained from the test group).

[2] = tested on: biosynthetic pathway of cholesterol; assay: inhibitory effect in biosynthetic pathway of cholesterol; assay type: biochemical; details: 10^-4 M; rat liver microsomes and soluble fraction; 90 min, 100 µM
Method: Test for determining inhibitory effect in biosynthetic pathway of cholesterol
Each one of the test compounds was added to rat liver microsomes fraction (containing 0.2 mg of protein) and soluble fraction (containing 2 mg of protein), then the volume of the mixture was adjusted to 100 microliters by adding 0.1 M-potassium phosphate buffer solution (pH 7.4), then this mixture was incubated at 37° C. for 10 minutes.
After the incubation, the reaction was started by adding 200 microliters of a solution containing 1 mM ATP, 10 mM glucose-1-phosphate, 6 mM glutathione, 6 mM MgCl2, […], 0.25 mM […], 0.25 mM NADP, and 1 mM [1-^14 C] sodium acetate (3.0 mCi/mM).
The whole mixture was incubated at 37° C. for 90 minutes, then the reaction was terminated by adding […] of 15%-KOH (a 95% ethanol solution), next 2 mg of cholesterol was added thereto, saponified at 75° C. for 1 hour, and cholesterol was extracted with petroleum ether, the extract was concentrated to dryness. To the residue thus obtained was added with 2.5 ml of a mixture of acetone-diethyl ether (1:1) and 2.5 ml of 1%-digitonin (a 50% ethanol solution), then this solution was allowed to stand for 1 hour in cooling condition by using ice-water to precipitate cholesterol. The precipitate was washed with acetone, a mixture of acetonediethyl ether (1:1) and diethyl ether in this order, then the radioactivity of the residue was measured by using a liquid scintillation counter.
Control test was also conducted by the procedures similar to those mentioned above in the test group, except that each one of the test compounds was not used.
Inhibitory effect in biosynthetic pathway of cholesterol performed by each one of the test compounds was calculated, in terms of inhibitory ratio (%), from the formula on the basis of the radioactivity of the control group as follows: [formula] (wherein
[c] is a radioactivity of the control group, and
[d] is a radio activity of the test group).

[3] = 24 hours after Triton WR-1339 (400 mg/kg, tail vein), read-out: lowering ratio of serum triglycerides, 24 hours after Triton WR-1339
[4] = 24 hours after Triton WR-1339 (400 mg/kg, tail vein), read-out: lowering ratio of total serum cholesterol, 24 hours after Triton WR-1339
[5] = 48 hours after Triton WR-1339 (400 mg/kg, tail vein), read-out: lowering ratio of serum triglycerides, 48 hours after Triton WR-1339
[6] = 48 hours after Triton WR-1339 (400 mg/kg, tail vein), read-out: lowering ratio of total serum cholesterol, 48 hours after Triton WR-1339

Row | Structure (SMILES) | inhibition in vivo at 50 mg/kg [1, 3] [%] | inhibition in vivo at 50 mg/kg [1, 4] [%] | inhibition in vivo at 50 mg/kg [1, 5] [%] | inhibition in vivo at 50 mg/kg [1, 6] [%] | Inhibitory ratio of cholesterol biosynthesis [2] [%]
1 | CCOP(=O)(Cc1ccc(C(=O)Nc2ccc(Cl)c(C(F)(F)F)c2)cc1)OCC [compound 9] | 11.3 | 11.7 | 68.4 | 42.3 | 
2 | CCOP(=O)(Cc1ccc(C(=O)N(Cc2ccccc2)c2ccc(C(F)(F)F)cc2)cc1)OCC [compound 12] | 60.4 | 36.9 | 83.9 |  | 
3 | CCOP(=O)(Cc1ccc(C(=O)Nc2ccc(C(F)(F)F)cc2)cc1)OCC [compound 13] | 73.9 | 33.7 | 95.4 | 64.4 | 
4 | CCOP(=O)(Cc1ccc(C(=O)N(C)c2ccc(Cl)cc2)cc1)OCC [compound 14] | 46 | 29.3 |  | 49.4 | 
5 | CCOP(=O)(Cc1ccc(C(=O)N(c2ccc(Cl)cc2)C2CCCC2)cc1)OCC [compound 15] | 23 | 9.8 | 55.8 | 22.6 | 
6 | CCOP(=O)(Cc1ccc(C(=O)Nc2ccc(I)cc2)cc1)OCC [compound 16] | 94.1 | 64 | 95.3 | 75.1 | 
7 | CCOP(=O)(Cc1ccc(C(=O)N(Cc2ccc(Cl)cc2)c2ccc(Cl)c(Cl)c2)cc1)OCC [compound 17] | 56.8 | 27.8 | 94.1 | 64.4 | 
8 | CCOP(=O)(Cc1ccc(C(=O)Nc2ccc([N+](=O)[O-])cc2)cc1)OCC [compound 18] | 54.4 | 32.7 | 74.9 | 37.5 | 
9 | CCOP(=O)(Cc1ccc(C(=O)Nc2ccc(C#N)cc2)cc1)OCC [compound 19] | 90.5 | 60.6 | 94.7 | 63.6 | 
10 | CCOP(=O)(Cc1ccc(C(=O)Nc2ccc(F)cc2)cc1)OCC [compound 20] | 57.3 | 27 | 90.5 | 55.1 | 
11 | CCOP(=O)(Cc1ccc(C(=O)N(Cc2ccc(Cl)cc2)c2ccc(Cl)cc2)cc1)OCC [compound 21] | 47.9 | 15.9 | 89.1 | 52.3 | 
12 | CCOP(=O)(Cc1ccc(C(=O)Nc2ccc(C)cc2)cc1)OCC [compound 22] | 38.6 | 6.9 | 28.1 | 29 | 32.2
13 | CCOP(=O)(Cc1ccc(C(=O)Nc2ccc(OC)cc2)cc1)OCC [compound 23] | 25.5 | 17.3 | 27.6 | 32.5 | 
14 | CCOP(=O)(Cc1cccc(C(=O)N(c2ccccc2)c2ccc(C(=O)OC)cc2)c1)OCC [compound 24] |  |  |  |  | 21.6
15 | CCOP(=O)(Cc1ccccc1C(=O)N(Cc1ccc(C#N)cc1)c1ccc(OC)cc1)OCC [compound 25] |  |  |  |  | 20.1
16 | CCOP(=O)(Cc1ccc(C(=O)Nc2ccccc2O)cc1)OCC [compound 28] |  |  |  |  | 22.1
17 | CCOP(=O)(Cc1ccc(C(=O)NCCc2ccc(OC)c(OC)c2)cc1)OCC [compound 30] |  |  |  |  | 28.9
18 | CCCCCCCCN(C(=O)c1ccc(CP(=O)(OCC)OCC)cc1)c1ccccc1 [compound 33] |  |  |  |  | 89.6
19 | CCCCCCCCC(c1ccc(C(=O)N(CCCCCCCC)c2ccccc2)cc1)P(=O)(OCC)OCC (centres unmarked) [compound 34] |  |  |  |  | 85.2
20 | CCOP(=O)(Cc1ccc(C(=O)N(c2ccccc2)C2CCCCC2)cc1)OCC [compound 35] |  |  |  |  | 39.2
21 | CCOP(=O)(Cc1ccc(C(=O)N(Cc2ccc(C)cc2)c2ccccc2)cc1)OCC [compound 37] |  |  |  |  | 82.8
22 | CCOP(=O)(Cc1ccc(C(=O)N(Cc2ccc(OC)cc2)c2ccccc2)cc1)OCC [compound 38] |  |  |  |  | 85.2
23 | CCOP(=O)(Cc1ccc(C(=O)N(Cc2ccc([N+](=O)[O-])cc2)c2ccccc2)cc1)OCC [compound 39] |  |  |  |  | 74.6

Row | Structure (SMILES) | inhibition in vivo at 50 mg/kg [1, 3] [%] | inhibition in vivo at 50 mg/kg [1, 4] [%] | inhibition in vivo at 50 mg/kg [1, 5] [%] | inhibition in vivo at 50 mg/kg [1, 6] [%] | Inhibitory ratio of cholesterol biosynthesis [2] [%]
24 | CCOP(=O)(Cc1ccc(C(=O)N(Cc2cccc(C(F)(F)F)c2)c2ccccc2)cc1)OCC [compound 40] |  |  |  |  | 91.6
25 | CCOP(=O)(Cc1ccc(C(=O)N(CCc2ccccc2)c2ccccc2)cc1)OCC [compound 42] |  |  |  |  | 86.7
26 | CCOP(=O)(Cc1ccc(C(=O)N(C)Cc2ccccc2)cc1)OCC [compound 43] |  |  |  |  | 23.8
27 | CCOP(=O)(Cc1ccc(C(=O)N(Cc2ccccc2)C(C)C)cc1)OCC [compound 44] |  |  |  |  | 46.2
28 | CCOP(=O)(Cc1ccc(C(=O)N(Cc2ccccc2)C2CCCCC2)cc1)OCC [compound 45] |  |  |  |  | 76.9
29 | CCOP(=O)(Cc1ccc(C(=O)N(Cc2ccccc2)c2ccc(C)cc2)cc1)OCC [compound 46] |  |  |  |  | 59.1
30 | CCOP(=O)(Cc1ccc(C(=O)N(Cc2ccccc2)c2ccccc2F)cc1)OCC [compound 47] |  |  |  |  | 67.2
31 | CCOP(=O)(Cc1ccc(C(=O)N(Cc2ccccc2)c2ccc(OC)cc2)cc1)OCC [compound 48] |  |  |  |  | 63.7
32 | CCOP(=O)(Cc1ccc(C(=O)N(Cc2ccccc2)c2ccc(C#N)cc2)cc1)OCC [compound 49] |  |  |  |  | 75.2
33 | CCOP(=O)(OCC)C(Cc1ccccc1)c1ccc(C(=O)N(Cc2ccccc2)c2cccc(C(F)(F)F)c2)cc1 (centres unmarked) [compound 51] |  |  |  |  | 70.4
34 | CCOP(=O)(Cc1ccc(C(=O)N(Cc2ccccc2)c2ccc(OC)c(OC)c2)cc1)OCC [compound 53] |  |  |  |  | 59.0
35 | CCOP(=O)(Cc1ccc(C(=O)N(Cc2ccccc2)Cc2ccccc2)cc1)OCC [compound 54] |  |  |  |  | 69.7
36 | CCOP(=O)(Cc1ccc(C(=O)Nc2ccccc2Br)cc1)OCC [compound 55] |  |  |  |  | 57.1
37 | CCOP(=O)(Cc1ccc(C(=O)N2CCN(C)CC2)cc1)OCC [compound 56] |  |  |  |  | 23.6
38 | CCOP(=O)(Cc1ccc(C(=O)N2CCN(c3ccccc3C)CC2)cc1)OCC [compound 57] |  |  |  |  | 41.9
39 | CCOP(=O)(Cc1ccc(C(=O)N2CCN(c3ccc(OC)cc3)CC2)cc1)OCC [compound 59] |  |  |  |  | 55.1
40 | CCOP(=O)(Cc1ccc(C(=O)N2CCN(c3cccc(C(F)(F)F)c3)CC2)cc1)OCC [compound 60] |  |  |  |  | 24.9
41 | CCOP(=O)(Cc1ccc(C(=O)N2CCN(Cc3ccccc3)CC2)cc1)OCC [compound 61] |  |  |  |  | 58.3
42 | CCOP(=O)(OCC)C(C)c1ccc(C(=O)N(CCc2ccccc2)Cc2ccccc2)cc1 (centres unmarked) [compound 62] |  |  |  |  | 80.2
43 | CCOP(=O)(Cc1ccc(C(=S)N(C)c2ccccc2)cc1)OCC [compound 67] |  |  |  |  | 32.5
44 | CCOP(=O)(Cc1ccc(C(=S)N(C)Cc2ccccc2)cc1)OCC [compound 68] |  |  |  |  | 57.2
45 | CCOP(=O)(Cc1ccc(C(=S)N(Cc2ccccc2)Cc2ccccc2)cc1)OCC [compound 69] |  |  |  |  | 85.3
